# Experimental data as given in paper PMC5007854, “β-Nitrostyrenes as Potential Anti-leishmanial Agents” (Frontiers in Microbiology, 2016).
# Like-named read-outs stand apart in the source and are kept apart here.
# Experiments:
# [1] = tested on: Escherichia coli ATCC 25922; experiment: Broth microdilution antibacterial susceptibility (MIC/MBC); assay type: cell-based; conditions: for MIC / MBC: Escherichia coli; for MIC: ATCC25922, 24 h
# Text: (§1) One reference each of the following species was used for their in vitro susceptibility to β-nitrostyrene in this study: Staphylococcus aureus ATCC 29213, Staphylococcus epidermidis ATCC 14990, Escherichia coli ATCC 25922, Pseudomonas aeruginosa ATCC 27853, Candida albicans ATCC 90028, Candida glabrata ATCC 90030, Aspergillus fumigatus ATCC 16424 and Aspergillus niger ATCC 16404. These strains were procured from the American Type Culture Collection (ATCC, Manassas, VA, USA).
# (§2) The antibacterial and antifungal activities of the β-nitrostyrenes were performed by broth microdilution methods as per the guidelines of Clinical and Laboratory Standard Institute (Wayne, [1998], [2008a],[b],[c]) by using Mueller-Hinton broth (MHB; Becton-Dickinson, Cockeysville, MD, USA) supplemented with calcium (25 mg/L) and magnesium (12.5 mg/L) for bacterial strains while as RPMI 1640 medium with L-glutamine and without sodium bicarbonate, buffered to pH 7.0 with 0.165 M 3-(N-morpholino) propanesulfonic acid (MOPS; both from Sigma) was used for fungal strains. Stock solutions were prepared in 100% dimethyl sulfoxide (DMSO; Sigma; distilled water was used for ciprofloxacin), with a final DMSO concentration of 1% (vol. per vol.) and two-fold serial dilutions were prepared in media in amounts of 100 μL per well in 96-well U-bottom microtiter plates (Tarsons, Kolkata, India) to yield twice the final concentration required for testing, which ranged from 64 to 0.12 μg/mL for β-nitrostyrenes and 16 to 0.03 μg/mL for ciprofloxacin as well as amphotericin B. Stock inoculum suspensions of the bacteria, Candida species and Aspergillus species were prepared in sterile normal saline (0.85%) containing 0.05% polysorbate 20 (NST) from overnight (3 to 5-day old for Aspergillus species) strains grown on Trypticase soy agar (TSA; Becton-Dickinson) and potato dextrose agar (Difco Laboratories, Detroit, MI, USA) respectively at 35°C. Inocula were verified for each assay by plating onto agar plates for colony enumeration. These suspensions were further diluted in the respective test medium and a 100 μl volume of this diluted inoculum was added to each well of the plate, resulting in a final inoculum concentration of approximately 5 × 10^5 CFU/mL for bacter1ia, (Wayne, [2008a]) approximately 2.5 × 10^4 CFU/ml for Candida species (Pfaller et al., [2004]) while as 0.4 × 10^4 to 5 × 10^4 CFU/mL for Aspergillus species (Wayne, [2008c]). Untreated growth control, vehicle control (DMSO) and sterility control wells were included for each isolate tested. Ciprofloxacin and amphotericin B served as the standard drug controls for bacterial and fungal strains, respectively. The microtiter plates were incubated at 35°C for 24 h for bacterial strains and 48 h for fungal strains. The plates were read visually and the minimum inhibitory concentration (MIC) was defined as the lowest concentration of test sample that prevented visible growth with respect to the growth control.
# (§3) The minimum bactericidal concentration (MBC) and minimum fungicidal concentration (MFC) were determined by plating 100 μl volumes on agar plates from the wells showing no visible growth (clear MIC well). The plates were incubated as described above in MIC measurements. […] All experiments were conducted twice in duplicates on separate occasions with freshly prepared inoculums and stock solutions.
# [2] = tested on: Pseudomonas aeruginosa ATCC 27853; experiment: as above; assay type: cell-based; conditions: for MIC / MBC: Pseudomonas aeruginosa; for MIC: ATCC27853, 24 h
# Text: as §1, §2, §3
# [3] = tested on: Staphylococcus aureus ATCC 29213; experiment: as above; assay type: cell-based; conditions: for MIC / MBC: Staphylococcus aureus; for MIC: ATCC29213, 24 h
# Text: as §1, §2, §3
# [4] = tested on: Staphylococcus epidermidis ATCC 14990; experiment: as above; assay type: cell-based; conditions: for MIC / MBC: Staphylococcus epidermidis; for MIC: ATCC14990, 24 h
# Text: as §1, §2, §3
# [5] = tested on: Aspergillus fumigatus ATCC 16424; experiment: Broth microdilution antifungal susceptibility (MIC/MFC); assay type: cell-based; conditions: for MIC / MFC: Aspergillus fumigatus; for MIC: ATCC16424, 48 h
# Text: as §1, §2, §3
# [6] = tested on: Aspergillus niger ATCC 16404; experiment: as above; assay type: cell-based; conditions: for MIC / MFC: Aspergillus niger; for MIC: ATCC16404, 48 h
# Text: as §1, §2, §3
# [7] = tested on: Candida albicans ATCC 90028; experiment: as above; assay type: cell-based; conditions: for MIC / MFC: Candida albicans; for MIC: ATCC90028, 48 h
# Text: as §1, §2, §3
# [8] = tested on: Candida glabrata ATCC 90030; experiment: as above; assay type: cell-based; conditions: Nakaseomyces glabratus; for MIC: ATCC90030, 48 h
# Text: as §1, §2, §3
# [9] = tested on: L. donovani promastigotes; experiment: Anti-leishmanial screening at 100 μM, parasite viability by microscopy; assay type: cell-based, Leishmania donovani; conditions: for Parasite viability after treatment: 100 μM, 72 h, phase contrast microscope; for Anti-leishmanial activity, in words (SAR discussion): L. donovani promastigotes
# Protocol: (§4) L. donovani parasites (MHOM/IN/83/AG83) were maintained in vivo in BALB/c mice. Promastigotes were routinely cultured at 22°C in medium M199 supplemented with 10% heat inactivated fetal bovine serum (FBS, HiMedia Laboratories, Mumbai, India), penicillin 100 (IU/ml), streptomycin (100 μg/ml). Log phase promastigotes were sub-cultured every 72–96 h, the inoculum being 2 × 10^6 cells/ml (Afrin et al., [2002]).
# Nitrostyrine series were screened for their antileishmanial activity against L. donovani promastigotes in vitro. Promastigotes of L. donovani (2 × 10^6 cells/mL) in M199 medium were incubated at 22°C for 72 h with each compound at a concentration of 100 μM. Amphotericin B (AmB) served as reference drug, 0.2% DMSO was used as solvent control. Parasites with media alone were taken as control. Parasite viability was determined microscopically after 72 h (Islamuddin et al., [2014b]).
# [10] = tested on: L. donovani promastigotes; experiment: Dose-dependent anti-promastigote activity, IC50 and IC90; assay type: cell-based, Leishmania donovani
# Protocol: as §4
# AmB was used as a standard antileishmanial drug control. The cell viability was evaluated by microscopically and the mean percentage viability was calculated as follows: Mean cell number of treated parasites / Mean cell number of untreated parasites × 100. The 50 and 90% inhibitory concentration (IC50 and IC90) i.e., the concentration of drugs that decreased the cell growth by 50 and 90% respectively was determined by graphical extrapolation after plotting the graph of % viability vs. concentration of drug (Islamuddin et al., [2014b]).
# In vitro antileishmanial activity was expressed as IC50 by linear regression analysis. Values are mean ± SE of samples in triplicate from at least three independent experiments. Statistical analysis was performed using ANOVA followed by Dunnett's test. ^*P < 0.05, ^**P < 0.01 and ^***P < 0.001 compared with the untreated control group were considered significant.
# [11] = broth microdilution, 35°C, 24 h, read-out: MIC, Ec ATCC 25922
# [12] = ATCC25922, ≥99.9% reduction of original inoculum, read-out: MBC, Ec ATCC 25922
# [13] = broth microdilution, 35°C, 24 h
# [14] = broth microdilution, 35°C, 24 h, read-out: MIC, Pa ATCC 27853
# [15] = ATCC27853, ≥99.9% reduction of original inoculum, read-out: MBC, Pa ATCC 27853
# [16] = broth microdilution, 35°C, 24 h, read-out: MIC, Sa ATCC 29213
# [17] = ATCC29213, ≥99.9% reduction of original inoculum, read-out: MBC, Sa ATCC 29213
# [18] = broth microdilution, 35°C, 24 h, read-out: MIC, Se ATCC 14990
# [19] = ATCC14990, ≥99.9% reduction of original inoculum, read-out: MBC, Se ATCC 14990
# [20] = broth microdilution, 35°C, 48 h, read-out: MIC, Af ATCC 16424
# [21] = ATCC16424, ≥99.9% reduction of original inoculum, read-out: MFC, Af ATCC 16424
# [22] = broth microdilution, 35°C, 48 h
# [23] = broth microdilution, 35°C, 48 h, read-out: MIC, An ATCC 16404
# [24] = ATCC16404, ≥99.9% reduction of original inoculum, read-out: MFC, An ATCC 16404
# [25] = broth microdilution, 35°C, 48 h, read-out: MIC, Ca ATCC 90028
# [26] = ATCC90028, ≥99.9% reduction of original inoculum, read-out: MFC, Ca ATCC 90028
# [27] = ATCC90030, ≥99.9% reduction of original inoculum, read-out: MFC, Cg ATCC 90030
# [28] = broth microdilution, 35°C, 48 h, read-out: MIC, Cg ATCC 90030
Structure (SMILES),Parasite viability after treatment [9],melting point [°C],"MIC [1, 11] [µg/mL]","MBC [1, 12] [µg/mL]","MIC [2, 14] [µg/mL]","MBC [2, 15] [µg/mL]","MIC [3, 16] [µg/mL]","MBC [3, 17] [µg/mL]","MIC [4, 18] [µg/mL]","MBC [4, 19] [µg/mL]","MIC [5, 20] [µg/mL]","MFC [5, 21] [µg/mL]","MIC [6, 23] [µg/mL]","MFC [6, 24] [µg/mL]","MIC [7, 25] [µg/mL]","MFC [7, 26] [µg/mL]","MFC [8, 27] [µg/mL]","MIC [8, 28] [µg/mL]","Anti-leishmanial activity, in words (SAR discussion) [9]",further results
"C/C(=C\c1ccc([N+](=O)[O-])cc1)[N+](=O)[O-] [Compound 8, 1-nitro-4-((E)-2-nitroprop-1-enyl) benzene]",All the parasites were found to be dead,114 to 116,–,–,–,–,–,–,–,–,–,–,–,–,–,–,–,–,–,"MIC ([1]; read-out: MIC, Ec ATCC 25922, broth microdilution, 35°C, 24 h): 64 µg/mL; MBC ([1]; ATCC25922, read-out: MBC, Ec ATCC 25922): > 64 µg/mL; MIC ([2]; read-out: MIC, Pa ATCC 27853, broth microdilution, 35°C, 24 h): 64 µg/mL; MBC ([2]; ATCC27853, read-out: MBC, Pa ATCC 27853): > 64 µg/mL; MIC ([3]; read-out: MIC, Sa ATCC 29213, broth microdilution, 35°C, 24 h): 16 µg/mL; MBC ([3]; ATCC29213, read-out: MBC, Sa ATCC 29213): 32 µg/mL; MIC ([4]; read-out: MIC, Se ATCC 14990, broth microdilution, 35°C, 24 h): 16 µg/mL; MBC ([4]; ATCC14990, read-out: MBC, Se ATCC 14990): 16 µg/mL; MIC ([5]; read-out: MIC, Af ATCC 16424, broth microdilution, 35°C, 48 h): 4 µg/mL; MFC ([5]; ATCC16424, read-out: MFC, Af ATCC 16424): 4 µg/mL; MIC ([6]; read-out: MIC, An ATCC 16404, broth microdilution, 35°C, 48 h): 2 µg/mL; MFC ([6]; ATCC16404, read-out: MFC, An ATCC 16404): 2 µg/mL; MIC ([7]; read-out: MIC, Ca ATCC 90028, broth microdilution, 35°C, 48 h): 4 µg/mL; MFC ([7]; ATCC90028, read-out: MFC, Ca ATCC 90028): 4 µg/mL; MIC ([8]; read-out: MIC, Cg ATCC 90030, broth microdilution, 35°C, 48 h): 1 µg/mL; MFC ([8]; ATCC90030, read-out: MFC, Cg ATCC 90030): 1 µg/mL"
"C/C(=C\c1ccc(O)cc1)[N+](=O)[O-] [Compound 17, 4-((E)-2-nitroprop-1-enyl) phenol]",All the parasites were found to be dead,122 to 124,16 to 32,16,16 to 32,32,2 to 32,4,2 to 16,2,4 to 8,8,2 to 4,4,4 to 32,8,8,–,–,"MIC, Ec ATCC 25922 [1, 13]: 16 µg/mL; MIC, Pa ATCC 27853 [2, 13]: 16 µg/mL; MIC, Sa ATCC 29213 [3, 13]: 4 µg/mL; MIC, Se ATCC 14990 [4, 13]: 2 µg/mL; MIC, Af ATCC 16424 [5, 22]: 8 µg/mL; MIC, An ATCC 16404 [6, 22]: 4 µg/mL; MIC, Ca ATCC 90028 [7, 22]: 8 µg/mL; Anti-leishmanial activity, in words (compounds with IC50 determined) ([10]; L. donovani promastigotes): moderately active; IC50 ([10]; Leishmania donovani, 72 h, 22°C, values given in μM, read-out: IC50 against promastigotes): 39.4 ± 1.36 µM"
"CC/C(=C(/C)c1cccc(O)c1)[N+](=O)[O-] [Compound 26, 3-((E)-3-nitropent-2-en-2-yl)phenol]",–,138 to 140,> 64,> 64,> 64,> 64,8,16,8,8,> 64,> 64,64,> 64,> 64,> 64,> 64,> 64,loss of activity,–
"CCOc1cccc(/C=C/[N+](=O)[O-])c1O [Compound 27, 2-ethoxy-6-((E)-2-nitrovinyl) phenol]",–,128 to 130,> 64,> 64,> 64,> 64,32,32,16,16,16,16,8,8,32,32,16,16,inactive,–
